We go through four molecules from ChEMBL document CHEMBL5154783, “Design, synthesis, and evaluation of novel 3-thiophene derivatives as potent fungistatic and fungicidal reagents based on a conformational restriction strategy” (Eur J Med Chem, 2022).

Holding throughout (type): functional
Assay [1] relates to Candida parapsilosis. The assay is described as follows: Antifungal activity against Candida parapsilosis GIM 2.190 assessed as fungal growth inhibition by CLSI based serial microbroth dilution method. The following applies: Lodderomyces parapsilosis. A general note: In broth dilution the organism is exposed to a series of concentrations in liquid medium.
The test system of assay [2] is Nakaseomyces glabratus. The assay is described as follows: Antifungal activity against Candida glabrata clinical isolate assessed as fungal growth inhibition by CLSI based serial microbroth dilution method.
Assay [3] has as its system Cryptococcus neoformans. The assay is described as follows: Antifungal activity against Cryptococcus neoformans CGMCC 2.3161 assessed as fungal growth inhibition by CLSI based serial microbroth dilution method.
Assay [4] has as its system Candida tropicalis. The assay is described as follows: Antifungal activity against Candida tropicalis CGMCC 2.3739 assessed as fungal growth inhibition by CLSI based serial microbroth dilution method.
Assay [5] concerns Aspergillus fumigatus. Put plainly: Antifungal activity against Aspergillus fumigatus CGMCC 3.7795 assessed as fungal growth inhibition by CLSI based serial microbroth dilution method.
The test system of assay [6] is Candida albicans. Put plainly: Antifungal activity against Candida albicans CPCC400616 assessed as fungal growth inhibition by CLSI based serial microbroth dilution method.
For assay [7], the system named is Pichia kudriavzevii. Put plainly: Antifungal activity against Candida krusei GIM 2.1 assessed as fungal growth inhibition by CLSI based serial microbroth dilution method.
Assay [8] relates to Candida albicans. Put plainly: Antifungal activity against Candida albicans ATCC SC5314 assessed as fungal growth inhibition by CLSI based serial microbroth dilution method.
In assay [9] the test system is Candida albicans. Put plainly: Antifungal activity against FLC-resistant Candida albicans CaR assessed as fungal growth inhibition by CLSI based serial microbroth dilution method.
Assay [10] relates to Candida albicans. The assay is described as follows: Antifungal activity against FLC-resistant Candida albicans 311 assessed as fungal growth inhibition by CLSI based serial microbroth dilution method.
The test system of assay [11] is Candida albicans. Put plainly: Antifungal activity against FLC and ITC-resistant Candida albicans 17 assessed as fungal growth inhibition by CLSI based serial microbroth dilution method.
Assay [12] has as its system Candida albicans. Put plainly: Antifungal activity against FLC-resistant Candida albicans 901 assessed as fungal growth inhibition by CLSI based serial microbroth dilution method.
The test system of assay [13] is Candida albicans. Put plainly: Antifungal activity against FLC-resistant Candida albicans 632 assessed as fungal growth inhibition by CLSI based serial microbroth dilution method.
Assay [14] deals with Candida albicans. The assay is described as follows: Antifungal activity against FLC-resistant Candida albicans 904 assessed as fungal growth inhibition by CLSI based serial microbroth dilution method.
Assay [15] has as its system Candida albicans. Put plainly: Antifungal activity against FLC-resistant Candida albicans 100 assessed as fungal growth inhibition by CLSI based serial microbroth dilution method.
Assay [16] deals with Candida albicans. The assay is described as follows: Antifungal activity against FLC-resistant Candida albicans 103 assessed as fungal growth inhibition by CLSI based serial microbroth dilution method.

Converted amounts (≈) assume the structure as drawn.

In general, MIC refers to the lowest concentration that inhibits growth of the organism. As to `c1ccc(CC2(Cn3ccnc3)COC(c3ccc(-c4cncnc4)cc3)=N2)cc1` (stereo not given), the MIC in [1], in assay [2], in assay [3], in assay [4], in assay [5] and in [6] was over 64 µg/mL in each case. Moreover, the MIC in [7] and in assay [8] was over 64 µg/mL throughout.

For `Fc1ccccc1CC1(Cn2ccnc2)COC(c2ccc(-c3ccsc3)cc2)=N1` (stereo not given), the minimum inhibitory concentration (MIC) turned out to be 32 µg/mL (≈ 76.6 µM) in assay [9]; 0.5 µg/mL (≈ 1.2 µM) in assay [1]; 4 µg/mL (≈ 9.58 µM) in assay [10]; 16 µg/mL (≈ 38.3 µM) in assay [2]; 8 µg/mL (≈ 19.2 µM) in [11]; 16 µg/mL (≈ 38.3 µM) in assay [3]. The MIC in assay [12] was found to be 2 µg/mL (≈ 4.79 µM); in assay [4], 0.125 µg/mL (≈ 0.299 µM); in assay [5], 32 µg/mL (≈ 76.6 µM); in [13], 8 µg/mL (≈ 19.2 µM); in [6], 0.5 µg/mL (≈ 1.2 µM); in assay [14], 2 µg/mL (≈ 4.79 µM). Besides, the MIC came to 1 µg/mL (≈ 2.4 µM) in assay [7], 2 µg/mL (≈ 4.79 µM) in assay [15], 0.125 µg/mL (≈ 0.299 µM) in assay [8] and 1 µg/mL (≈ 2.4 µM) in [16].

For the molecule `c1ccc(CC2(Cn3ccnc3)COC(c3ccc4ccccc4c3)=N2)cc1` (stereo not given), the MIC is over 64 µg/mL in assay [1]; over 64 µg/mL in assay [2]; 4 µg/mL (≈ 10.9 µM) in [3]; over 64 µg/mL in assay [4]; over 64 µg/mL in assay [5]; over 64 µg/mL in assay [6]. Moreover, the MIC in assay [7] and in [8] was over 64 µg/mL each time.

Regarding `c1ccc(CC2(Cn3ccnc3)COC(c3cc(-c4ccccc4)on3)=N2)cc1` (stereo not given), the MIC was over 64 µg/mL in [1]; over 64 µg/mL in assay [2]; 4 µg/mL (≈ 10.4 µM) in [3]; over 64 µg/mL in assay [4]; 2 µg/mL (≈ 5.2 µM) in assay [5]; over 64 µg/mL in [6]. Besides, the MIC in assay [7] and in assay [8] was over 64 µg/mL each time.
